The nature of data set [1]: Turbidity of crude library peptides (absorbance at 600 nm). Conditions: Physical stability of peptides. It counts as physicochemical. The procedure, abridged:
(§1)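 Crude peptides at 267 μM in 50 mM sodium acetate pH 4.0 or 50 mM sodium phosphate pH 7.0, pre-incubated 1-2 h at room temperature, then 4 μM final ThT added. Turbidity read first as A600. ThT fluorescence (ex 450/em 480 nm) read every 10 min for 72 h at 40° C, with 5 min shaking before each read; fibril formation = average emission.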

The nature of data set [2]: Fibril formation of crude library peptides (Thioflavin T). Details: key: average ThT fluorescence emission at 480 nm (ex 450 nm), raw units. Conditions: Physical stability of peptides. Type of data set: physicochemical. The method, boiled down: as §1
The target of the next data set is GLP1R (Homo sapiens, UniProt P43220). Nature of the data set: hGLP1R potency, cAMP accumulation in CHO-K1 cells stably overexpressing hGLP1R. Type of data set: cell-based. Also on record: host or cells: CHO-K1. Conditions: for EC50: cAMP accumulation; for SCTR EC50/GLP1R EC50 ratio: cAMP accumulation in CHO-K1 cells. The method, boiled down:
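Thawed cells go straight into buffer containing 0.5 mM IBMX and 0.05% casein, get graded compound doses for 30 min at room temperature, and are then assayed for accumulated cAMP by time-resolved FRET. Human GLP-1(7-36) serves as positive control; EC50 is derived by nonlinear regression.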

In another data set the target is SCTR (Homo sapiens, UniProt P47872). The experiment in a line: hSCTR potency, cAMP accumulation in CHO-K1 cells stably overexpressing hSCTR. The settings on record: cAMP accumulation. Details: alternatively Euroscreen ES-712-AF; FAST-0161L; host or cells: CHO-K1. Type of data set: cell-based. The procedure, abridged:
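Read-out is TR-FRET cAMP detection, recorded one hour after reagent addition, in CHO-K1 cells stably overexpressing hSCTR. Cells in DPBS containing 0.05% casein and 0.5 mM IBMX are exposed to graded peptide doses for 30 min at room temperature, with human secretin as reference agonist.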

The mark [3] stands for this setting: CHO-K1 cells overexpressing hGLP1R, read-out: hGLP1R pEC50 (converted).
The mark [4] stands for this setting: selectivity for hGLP1R over hSCTR.
The mark [5] stands for this setting: CHO-K1 cells overexpressing hSCTR, read-out: hSCTR pEC50 (converted).
The mark [6] stands for this setting: CHO-K1 cells stably overexpressing hGLP1R, read-out: hGLP1R potency (pEC50) (converted).
[7] abbreviates: selectivity ratio, hSCTR vs hGLP1R.
Setting [8] is: CHO-K1 cells stably overexpressing hSCTR, read-out: hSCTR potency (pEC50) (converted).

Where two headings read alike, the source gives them in different places. Numbered stars: 1 amine (or outer) side, 2 acyl side, 3 side chain; on linkers, the order of the positions; unused ones are H or OH. Square brackets hold non-standard residues; d marks the D form. Side chains are listed from the residue outwards. Peptide text beside a SMILES is read from it. * marks the point of attachment. C20 diacid = O=C(O)CCCCCCCCCCCCCCCCCCC(=O)*; γGlu = O=C(O)[C@H](CCC(=O)[*:2])N[*:1]; AEEA = NCCOCCOCC(=O)O; Aib = CC(C)(N)C(=O)O

SCTR, sequence (P47872 23-440): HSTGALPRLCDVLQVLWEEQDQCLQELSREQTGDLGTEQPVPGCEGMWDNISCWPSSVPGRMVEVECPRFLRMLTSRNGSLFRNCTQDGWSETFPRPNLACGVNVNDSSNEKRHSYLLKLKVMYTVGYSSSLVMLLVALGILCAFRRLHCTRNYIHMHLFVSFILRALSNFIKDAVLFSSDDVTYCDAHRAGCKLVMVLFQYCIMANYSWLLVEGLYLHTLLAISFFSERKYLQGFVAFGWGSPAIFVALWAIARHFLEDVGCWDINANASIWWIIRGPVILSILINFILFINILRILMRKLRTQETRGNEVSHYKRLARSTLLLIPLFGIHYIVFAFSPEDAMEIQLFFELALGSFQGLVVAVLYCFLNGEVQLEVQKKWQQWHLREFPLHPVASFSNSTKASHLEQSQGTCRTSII
GLP1R, sequence (P43220 24-463): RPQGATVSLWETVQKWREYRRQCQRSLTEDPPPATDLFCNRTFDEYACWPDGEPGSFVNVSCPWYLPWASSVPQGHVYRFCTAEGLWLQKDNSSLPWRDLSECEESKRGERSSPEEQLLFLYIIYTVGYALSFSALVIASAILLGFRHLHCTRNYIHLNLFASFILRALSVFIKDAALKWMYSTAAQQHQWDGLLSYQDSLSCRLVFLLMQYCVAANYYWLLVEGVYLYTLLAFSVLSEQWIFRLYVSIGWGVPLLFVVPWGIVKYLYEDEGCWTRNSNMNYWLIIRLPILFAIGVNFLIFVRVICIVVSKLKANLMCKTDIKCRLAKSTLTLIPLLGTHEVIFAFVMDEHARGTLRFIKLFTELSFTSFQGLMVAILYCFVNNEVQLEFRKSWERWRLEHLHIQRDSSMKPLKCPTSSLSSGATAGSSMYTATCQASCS

`CC[C@H](C)[C@H](NC(=O)[C@H](Cc1ccccc1)NC(=O)[C@H](CCCNC(=N)N)NC(=O)[C@H](CCC(N)=O)NC(=O)[C@H](CC(C)C)NC(=O)[C@H](C)NC(=O)[C@H](C)NC(=O)CNC(=O)[C@H](CCC(=O)O)NC(=O)[C@H](CC(C)C)NC(=O)[C@H](CC(C)C)NC(=O)CNC(=O)[C@H](CO)NC(=O)[C@@H](NC(=O)[C@H](CC(=O)O)NC(=O)[C@H](CO)NC(=O)[C@@H](NC(=O)[C@H](Cc1ccccc1)NC(=O)[C@@H](NC(=O)CNC(=O)[C@H](CCC(=O)O)NC(=O)C(C)(C)NC(=O)[C@@H](N)Cc1c[nH]cn1)[C@@H](C)O)[C@@H](C)O)C(C)C)C(=O)N[C@@H](CCC(N)=O)C(=O)N[C@@H](Cc1c[nH]c2ccccc12)C(=O)N[C@@H](CC(C)C)C(=O)N[C@H](C(N)=O)C(C)C` [compound 182] (H-H[Aib]EGTFTSDVSGLLEGAALQRFIQWLV-NH2): the “Turbidity (pH 7)” value in data set [1] is given as 0.40. In data set [2], this compound registered a Fibril formation of 253106. Besides, the EC50 is 0.0501 nM at GLP1R (setting [3]) and 158 nM on SCTR (setting [5]). On GLP1R (setting [4]), the “SCTR EC50/GLP1R EC50 ratio” value stood at 2754.

Regarding `CC[C@H](C)[C@H](NC(=O)[C@H](Cc1ccccc1)NC(=O)[C@H](CCCNC(=N)N)NC(=O)[C@H](CCC(N)=O)NC(=O)[C@H](CC(C)C)NC(=O)[C@H](C)NC(=O)[C@H](C)NC(=O)CNC(=O)[C@H](CCC(=O)O)NC(=O)[C@H](CC(C)C)NC(=O)[C@H](CC(C)C)NC(=O)[C@H](Cc1c[nH]c2ccccc12)NC(=O)[C@H](CO)NC(=O)[C@@H](NC(=O)[C@H](CC(=O)O)NC(=O)[C@H](CO)NC(=O)[C@@H](NC(=O)[C@H](Cc1ccccc1)NC(=O)[C@@H](NC(=O)CNC(=O)[C@H](CCC(=O)O)NC(=O)C(C)(C)NC(=O)[C@@H](N)Cc1c[nH]cn1)[C@@H](C)O)[C@@H](C)O)C(C)C)C(=O)N[C@@H](CCC(N)=O)C(=O)N[C@@H](Cc1c[nH]c2ccccc12)C(=O)N[C@@H](CC(C)C)C(=O)N[C@H](C(N)=O)C(C)C` [compound 183] (H-H[Aib]EGTFTSDVSWLLEGAALQRFIQWLV-NH2), the “Turbidity (pH 7)” value in data set [1] stood at 0.67. For the same compound, the Fibril formation in data set [2] came out at 172171. The EC50 at GLP1R (setting [3]) is 0.0501 nM; at SCTR (setting [5]), 158 nM. In addition, the “SCTR EC50/GLP1R EC50 ratio” value on GLP1R (setting [4]) is recorded as 3127.

As to `CC[C@H](C)[C@H](NC(=O)[C@H](Cc1ccccc1)NC(=O)[C@H](CCCNC(=N)N)NC(=O)[C@H](CCC(N)=O)NC(=O)[C@H](CC(C)C)NC(=O)[C@H](C)NC(=O)[C@H](C)NC(=O)CNC(=O)[C@H](CCC(=O)O)NC(=O)[C@H](CC(C)C)NC(=O)[C@H](CC(C)C)NC(=O)[C@@H](NC(=O)[C@H](CO)NC(=O)[C@@H](NC(=O)[C@H](CC(=O)O)NC(=O)[C@H](CO)NC(=O)[C@@H](NC(=O)[C@H](Cc1ccccc1)NC(=O)[C@@H](NC(=O)CNC(=O)[C@H](CCC(=O)O)NC(=O)C(C)(C)NC(=O)[C@@H](N)Cc1c[nH]cn1)[C@@H](C)O)[C@@H](C)O)C(C)C)C(C)C)C(=O)N[C@@H](CCC(N)=O)C(=O)N[C@@H](Cc1c[nH]c2ccccc12)C(=O)N[C@@H](CC(C)C)C(=O)N[C@H](C(N)=O)C(C)C` [compound 184] (H-H[Aib]EGTFTSDVSVLLEGAALQRFIQWLV-NH2), the “Turbidity (pH 7)” value in data set [1] was 0.43. In addition, in data set [2], the Fibril formation was 260000. Besides, the EC50 at GLP1R (setting [3]) was 0.0251 nM; at SCTR (setting [5]), 251 nM. For the same compound, on GLP1R (setting [4]), the “SCTR EC50/GLP1R EC50 ratio” value is listed as 10252.

With `CC(C)C[C@H](NC(=O)[C@H](Cc1ccc(O)cc1)NC(=O)[C@H](CO)NC(=O)[C@H](Cc1c[nH]c2ccccc12)NC(=O)[C@H](CC(=O)O)NC(=O)[C@H](CO)NC(=O)[C@@H](NC(=O)[C@H](Cc1ccccc1)NC(=O)[C@@H](NC(=O)CNC(=O)[C@H](CCC(=O)O)NC(=O)C(C)(C)NC(=O)[C@@H](N)Cc1c[nH]cn1)[C@@H](C)O)[C@@H](C)O)C(=O)N[C@@H](CCCCNC(=O)COCCOCCNC(=O)COCCOCCNC(=O)CC[C@H](NC(=O)CCCCCCCCCCCCCCCCCCC(=O)O)C(=O)O)C(=O)N[C@@H](CCC(=O)O)C(=O)N[C@@H](CCC(=O)O)C(=O)N[C@@H](C)C(=O)NC(C)(C)C(=O)N[C@@H](CC(C)C)C(=O)N[C@@H](CCC(N)=O)C(=O)N[C@@H](CCCNC(=N)N)C(=O)N[C@@H](Cc1ccccc1)C(=O)N[C@@H](CC(C)C)C(=O)N[C@@H](CCC(=O)O)C(=O)N[C@@H](Cc1c[nH]cn1)C(=O)N[C@@H](CC(C)C)C(=O)N[C@H](C(N)=O)C(C)C` [compound 185] (H-H[Aib]EGTFTSDWSYLK([AEEA-AEEA-γGlu-C20 diacid])EEA[Aib]LQRFLEHLV-NH2), in data set [1], the “Turbidity (pH 7)” value stood at 0.08. In data set [2], this compound displayed a Fibril formation of 4198. Moreover, the EC50 at GLP1R (setting [6]) is 0.00631 nM; at SCTR (setting [8]), 50.1 nM. In addition, the “SCTR EC50/GLP1R EC50 ratio” value on GLP1R (setting [7]) was found to be 7444.

As for `CC[C@H](C)[C@H](NC(=O)[C@H](Cc1ccccc1)NC(=O)[C@H](CCCNC(=N)N)NC(=O)[C@H](CCC(N)=O)NC(=O)[C@H](CC(C)C)NC(=O)[C@H](C)NC(=O)[C@H](C)NC(=O)CNC(=O)[C@H](CCC(=O)O)NC(=O)[C@H](CC(C)C)NC(=O)[C@H](CC(C)C)NC(=O)[C@H](CCCNC(=N)N)NC(=O)[C@H](CO)NC(=O)[C@H](Cc1c[nH]c2ccccc12)NC(=O)[C@H](CC(=O)O)NC(=O)[C@H](CO)NC(=O)[C@@H](NC(=O)[C@H](Cc1ccccc1)NC(=O)[C@@H](NC(=O)CNC(=O)[C@H](CCC(=O)O)NC(=O)C(C)(C)NC(=O)[C@@H](N)Cc1c[nH]cn1)[C@@H](C)O)[C@@H](C)O)C(=O)N[C@@H](CCC(N)=O)C(=O)N[C@@H](Cc1c[nH]c2ccccc12)C(=O)N[C@@H](CC(C)C)C(=O)N[C@H](C(N)=O)C(C)C` [compound 186] (H-H[Aib]EGTFTSDWSRLLEGAALQRFIQWLV-NH2), the “Turbidity (pH 7)” value in data set [1] was 1.04. Also, the Fibril formation in data set [2] stood at 48618. Further, the EC50 at GLP1R (setting [6]) was 0.0126 nM; on SCTR (setting [8]), 6.31 nM. Further, the “SCTR EC50/GLP1R EC50 ratio” value at GLP1R (setting [7]) came to 478.

On to `CC[C@H](C)[C@H](NC(=O)[C@H](Cc1ccccc1)NC(=O)[C@H](CCCNC(=N)N)NC(=O)[C@H](CCC(N)=O)NC(=O)[C@H](CC(C)C)NC(=O)[C@H](C)NC(=O)[C@H](C)NC(=O)CNC(=O)[C@H](CCC(=O)O)NC(=O)[C@H](CC(C)C)NC(=O)[C@H](CC(C)C)NC(=O)CNC(=O)[C@H](CO)NC(=O)[C@H](Cc1c[nH]c2ccccc12)NC(=O)[C@H](CC(=O)O)NC(=O)[C@H](CO)NC(=O)[C@@H](NC(=O)[C@H](Cc1ccccc1)NC(=O)[C@@H](NC(=O)CNC(=O)[C@H](CCC(=O)O)NC(=O)C(C)(C)NC(=O)[C@@H](N)Cc1c[nH]cn1)[C@@H](C)O)[C@@H](C)O)C(=O)N[C@@H](CCC(N)=O)C(=O)N[C@@H](Cc1c[nH]c2ccccc12)C(=O)N[C@@H](CC(C)C)C(=O)N[C@H](C(N)=O)C(C)C` [compound 187] (H-H[Aib]EGTFTSDWSGLLEGAALQRFIQWLV-NH2), for which the “Turbidity (pH 7)” value in data set [1] turned out to be 0.62. In data set [2], this compound had a Fibril formation of 13388. Besides, the results for the EC50 at GLP1R (setting [6]) and at SCTR (setting [8]) were 0.0398 nM and 50.1 nM, respectively. In addition, at GLP1R (setting [7]), the “SCTR EC50/GLP1R EC50 ratio” value is recorded as 1437.

Consider `CC[C@H](C)[C@H](NC(=O)[C@H](Cc1ccccc1)NC(=O)[C@H](CCCNC(=N)N)NC(=O)[C@H](CCC(N)=O)NC(=O)[C@H](CC(C)C)NC(=O)[C@H](C)NC(=O)[C@H](C)NC(=O)CNC(=O)[C@H](CCC(=O)O)NC(=O)[C@H](CC(C)C)NC(=O)[C@H](CC(C)C)NC(=O)[C@@H](NC(=O)[C@H](CO)NC(=O)[C@H](Cc1c[nH]c2ccccc12)NC(=O)[C@H](CC(=O)O)NC(=O)[C@H](CO)NC(=O)[C@@H](NC(=O)[C@H](Cc1ccccc1)NC(=O)[C@@H](NC(=O)CNC(=O)[C@H](CCC(=O)O)NC(=O)C(C)(C)NC(=O)[C@@H](N)Cc1c[nH]cn1)[C@@H](C)O)[C@@H](C)O)C(C)C)C(=O)N[C@@H](CCC(N)=O)C(=O)N[C@@H](Cc1c[nH]c2ccccc12)C(=O)N[C@@H](CC(C)C)C(=O)N[C@H](C(N)=O)C(C)C` [compound 188] (H-H[Aib]EGTFTSDWSVLLEGAALQRFIQWLV-NH2), for which, in data set [1], the “Turbidity (pH 7)” value turned out to be 0.85. The Fibril formation in data set [2] came out at 260000. For the same compound, the figures for the EC50 on GLP1R (setting [6]) and on SCTR (setting [8]) were 0.0794 nM and 31.6 nM, respectively. In addition, at GLP1R (setting [7]), the “SCTR EC50/GLP1R EC50 ratio” value was found to be 468.

These data come from US20260201008A1, “SECRETIN-DERIVED GLP1R SELECTIVE AGONISTS” (GUBRA A/S, priority 2023, published 2026).
